According to PubChem BioAssay AID449762 (Southern Research Specialized Biocontainment Screening …, 2010):
Records with an inconclusive call do not appear.

Test system: M. tuberculosis H37Rv growth inhibition, 7H9 media
Assay: M. tuberculosis growth inhibition, HTS (AID 449762);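 note: bacterial growth assessed after seven days of incubation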
Conditions: for IC90: measured here: IC90 growth inhibition

SMILES	IC50 [µM]	IC90 [µM]
Cc1nn(-c2ccccc2)nc1C(=O)c1c(C)[nH]n(-c2ccccc2)c1=O	9.7	18.7
COc1ccc(C[C@H](N)C(=O)N[C@H]2[C@@H](O)[C@H](n3cnc4c(N(C)C)ncnc43)O[C@@H]2CO)cc1	3.14	3.54
CC1CCN(C(=O)c2ccc(-c3ccccc3Cl)o2)CC1	17.9	65.8
COC(=O)c1[nH]c2cc(OC)ccc2c1NC(=O)CN1CCN(c2cccc(C)c2)C(C)C1 (stereo not given)	26.6	40.2
O=C1c2ccccc2CC1Sc1nnc(-c2ccncc2)o1 (stereo not given)	20.6	30
CC1(C)Cc2c(C#N)c(N3CCN(C(=O)c4ccccc4)CC3)nc(Cc3ccccc3)c2CO1	28.8	> 100
COC(=O)c1c(NC(=O)C(=O)N2CCCC2)sc2c1CC(C)(C)OC2	9.46	27.7
O=C(c1cc2cc(F)ccc2[nH]1)N(Cc1cccnc1)CC1CCCN(C2CCCCC2)C1 (stereo not given)	25	33.6
CC(=O)n1cc(/C=C2/N=C(c3ccccc3)OC2=O)c2ccccc21	30.7	75.5
COC(=O)c1ccc2c(=O)[nH]c(CSc3nc(C)cs3)nc2c1	69	> 100
O=C(Nc1cccnc1Cl)c1cc(-c2ccco2)on1	41.4	> 100
CC(O)CNc1nc2ccccc2n1-c1ncnc2sc3c(c12)CCC3 (stereo not given)	27.6	36.6
CCCCCCCCCCC[N+](C)(C)CC/C=C1/c2ccccc2Sc2ccc(Cl)cc21	7.04	8.09
O=C(Nc1cc(C(F)(F)F)ccc1-n1cncn1)c1ccc([N+](=O)[O-])o1	9.55	32.5
OC(CN1CCCCC1)Cn1c2ccc(Cl)cc2c2cc(Cl)ccc21 (stereo not given)	8.94	11.6
N#C/C(=C/c1ccc(Sc2nc3ccccc3[nH]2)o1)c1cccc(Br)c1	77.6	> 100
COc1ccc(N2CCN(C(=O)c3cc4c(C)nc5ccccc5c4o3)CC2)cc1	18.5	32.5
CCCNC(=S)Nc1ccc(Nc2ccccc2)cc1	31.7	52
CCOc1cc(NC(=O)CCl)c(OCC)cc1NC(C)=O	< 0.2	5.99
Cn1c(N)c(C(=O)COC(=O)c2ccc([N+](=O)[O-])o2)c(=O)n(C)c1=O	2.81	4.54
COc1ccc(C(=O)COC(=O)[C@H](C)Nc2ccc(C(F)(F)F)cc2[N+](=O)[O-])cc1	11.2	> 25

SMILES	IC50 [µM]	IC90 [µM]
Cc1cc(C)cc(-n2c(C)c3c(C)nnc(C)c3c2C)c1	62.8	78.1
Cc1ccc(CN2C3CCCC2CC(NC(=S)NCc2ccccc2)C3)cc1 (stereo not given)	45.8	52.4
CSc1ccc(C(=O)C2CCCN(C(=O)c3ccc4c(c3)no[n+]4[O-])C2)cc1 (stereo not given)	0.54	1.57
COC(=O)C(C)Oc1ccc(Cc2ncc(C(F)(F)F)cc2Cl)cc1 (stereo not given)	2.43	5.77
O=C(O)Cc1c[nH]c2ccc(O)cc12	–	> 100
Oc1ccc(-[n+]2c(-c3ccccc3)cc(-c3ccccc3)cc2-c2ccccc2)cc1	11.7	18.8
CC(C)(C)Nc1nc(NC(C)(C)C)nc(-n2ccnc2)n1	14.6	> 100
COC(=O)CSc1nnc([C@H](CC(C)C)NC(=O)OC(C)(C)C)o1	14.5	32.9
CNC[C@@H](Cc1ccccc1)NC[C@@H](CC1CCCCC1)NCCCc1ccccc1	7.96	9.49
CCn1cnc2sc(C(=O)Oc3ccc(Br)cc3)c(C)c2c1=O	3.2	11.3
COc1cc(C#Cc2c(-c3cncn3C)n(C)c3ccc(-c4cnc(N5CCOCC5)nc4)cc23)cc(OC)c1	45.8	51.7
CC(C)OC(=O)CCCCCN1C(=O)CSC1=S	3.5	8.17
CCCc1cnc(NCCNCC(O)COc2ccc(Cl)c(Cl)c2)nc1 (stereo not given)	17.1	22.1
O=[N+]([O-])c1cc(Cl)c(O)c(-[n+]2c(-c3ccccc3)cc(-c3ccccc3)cc2-c2ccccc2)c1	2.32	5.36
Cc1ccc(NC(=O)COc2ccc(-n3ccnc3)cc2)cc1Cl	24.8	28.8
COc1ccc(C(C[N+](=O)[O-])c2c(-c3ccccc3)cc3ccccn23)c(OC)c1 (stereo not given)	14.9	38.6
COC(=O)c1ccc(/C=C/c2c(-c3ccsc3)oc3ccc(N4CCOCC4)cc23)cc1	21.2	41.2
O=C(/C=C/c1ccc(O)c([N+](=O)[O-])c1)c1ccc2ccccc2c1	9.26	25.6
C=C[C@]1(C)C[C@@H](OC(=O)CSCCN(CC)CC)[C@]2(C)C(C)CC[C@]3(CCC(=O)[C@H]32)[C@@H](C)[C@@H]1O (stereo not given in full)	4.03	7.7
CC(=O)/C=C(\C)Nc1ccccc1O	3.57	6.18
Cc1[nH]n(S(=O)(=O)Cc2ccccc2)c(=O)c1N=Nc1ccccc1Cl	5.57	8.53

SMILES	IC50 [µM]	IC90 [µM]
O=[N+]([O-])c1ncccc1Oc1nc(-c2cccnc2)nc2ccccc12	< 0.2	1.36
CCCCCc1nc2c(c(=O)c3ccccc3n2C)c(=O)n1C1CCCCCC1	30	> 100
CCCc1ccc(NC(=O)C2CCN(c3cnccn3)CC2)cc1	53.9	78.7
CC1(C)CC(=O)C2=C(C1)NC(Nc1nc3ccccc3o1)=NC2c1ccccn1 (stereo not given)	< 0.2	2.31
CC(C)CS(=O)(=O)C1=NN2C(=N)/C(=C\c3ccc(OC(=O)c4ccco4)cc3)C(=O)N=C2S1	20.6	25.9
CC(/C=N/NC(=O)c1cc(-c2ccc3ccccc3c2)n[nH]1)=C\c1ccco1	29	51.2
CCCc1cc(-c2nc(-c3ccc(Br)cc3)cs2)ccn1	10.3	20.6
Cc1cccc(/C=c2\s/c(=C\C(=O)C(C)(C)C)[nH]c2=O)c1	5.66	23.6
O=C(Nc1ccc(OCC(F)(F)C(F)F)c(C(F)(F)F)c1)c1ccc(Cl)cc1	35.6	47.1
COCCn1nnnc1C(c1cc2cc(OC)ccc2[nH]c1=O)N1CCC(Cc2ccccc2)CC1 (stereo not given)	89.2	99.8
CN(C)CCOc1ccc(-c2c(-c3ccsc3)sc3ccccc23)cc1	13.2	15.5
O=C(CCc1c[nH]c2ccccc12)N1CCN(S(=O)(=O)c2ccccc2)CC1	94.3	> 100
CCOc1ccc(NC(=O)CSc2nc(O)c(C)c(=O)n2-c2ccc(F)cc2)cc1	8.48	20.3
COc1ccc(/C(O)=C/Sc2nnc(Cc3ccccc3)o2)cc1	26.3	> 100
COc1ccccc1C(=O)NNC(=O)C(=O)NCc1ccccc1	10.6	37.9
CCOC(=O)c1ccc(NC(=O)CSc2ccc(-c3cccnc3)nn2)cc1	–	> 100
S=C(Nc1ccc(Nc2ccccc2)cc1)Nc1ccccn1	48.7	> 50
CO[C@@H]1[C@@H](OC(N)=O)[C@@H](O)C(Oc2ccc3c(O)c(NC(=O)c4ccc(O)c(CC=C(C)C)c4)c(=O)oc3c2C)OC1(C)C (stereo not given in full)	4.98	9.66
COc1ccc(-n2cc(CNCCc3cscn3)c(-c3ccccc3Cl)n2)cc1	25.6	29.7
